Reference: patent US7723576B2, “Method of selectively producing male or female sterile plants” (Syngenta Limited, priority 2003, dated 2010)

What was measured:
[1] = system: conditionally female sterile tobacco plants; experiment: Foliar spray on conditionally female sterile transgenic tobacco (stig1-deacetylase plus plastocyanin-PAT); type: in vivo, Nicotiana tabacum var. Samsun
Experimental: Tobacco leaf discs are transformed with the recombinant binary vectors using methods similar to those described in Horsch et al (1985) Science, 227, 1229-1231. Many variations of the method may be used. The binary vector can be transformed into, for example, Agrobacterium tumefaciens strain LBA 4404 using the freeze thaw method of transformation. Tobacco transformation and whole plant regeneration is performed using Nicotiana tabacum var. Samsun according to protocols described by Draper et al (Plant Genetic Transformation, Blackwell Sci. Pub. 1989). Transformation events are selected on MS-media containing kanamycin or other suitable antibiotic. Alternatively selection is made on phosphinothricin. The presence of integrated transgenes is confirmed by PCR. Plants are regenerated and allowed to reach maturity and selfed on to produce seed. Northern and/or Western analysis is used to confirm tissue-specific expression of the deacetylase. The plants are self-fertile but have the condition of conditional female sterility. Seeds of the T1 generation are planted out. Once plantlets have grown to a sufficient size they are tested by PCR for the presence of transgene. PCR positive plants are transferred to the greenhouse. These plants are fully fertile in the absence of exogenously applied phosphinothricin. A subset of these (putatively) conditionally sterile plants are treated with DL-phosphiothricin or L phosphinothricin in various amounts and at varying growth stages. Such treatments are carried out on the T1 plants confirmed as PCR positive for the deacetylase gene, or, equally, such treatments are carried out directly on plants of the To generation (which are vegetatively cloned so that untreated clones of each event may be set aside for seed production). […] For example, phosphinotricin is applied as a foliar spray, prior to or during the early stages of flower formation, at rates usually between 0.25 and 20 kg/ha. Undamaged appearing plants are selected and pollen from the treated plants is collected and viability is tested. […]

[2] = system: conditionally male sterile tobacco plants; experiment: Foliar spray on conditionally male sterile transgenic tobacco (TA29-deacetylase plus plastocyanin-PAT); type: in vivo
Experimental: Tobacco plant material is transformed, via Agrobacterium, with vector and transgenic plants are regenerated in a similar manner to that described in the previous example. The plants produced are self-fertile but are conditionally male sterile. Seeds of the T1 generation are planted out into soil. Once plantlets have grown to a sufficient size they are tested by PCR for the presence of transgene. PCR positive plants are transferred to the greenhouse. These plants are fully fertile in the absence of exogenously applied herbicide. A subset of these putatively conditionally sterile T1 plants, or, alternatively plantlets of T0 ‘events’ (direct regenerants from transformation) are treated with phosphinothricin in various amounts and at varying growth stages. Where To plants are treated they are vegetatively cloned so that untreated siblings of the events are set aside for seed production. […] For example, phosphinothricin is applied as a foliar spray, prior to or during the early stages of flower formation, at rates usually between 0.25 and 20 kg/ha.
Pollen from the treated plants is collected and viability is tested. […] Pollen collected from some of the treated plants is tested and found to be malformed and non-viable. […]

[3] = system: wheat plants with PAT gene under plastocyanin promoter region; experiment: Application to wheat plants expressing PAT under a plastocyanin promoter region; type: in vivo; settings: rates of at least 2 kg/ha
Text: Firstly, the PAT gene is expressed under operable control of a plastocyanin promoter region so that it is expressed substantially only in the green tissues of the plant. […] Thus a critical feature of the constructs described in the foregoing examples which are used to provide the plants of the current example is that the PAT gene which provides the resistance trait is expressed under operable control of a promoter region which provides for expression in substantially only the green tissues. A characteristic of such a useful promoter region is that it should express PAT in such a way that it protects adequately all the […] floral tissues from foliarly applied DL phosphinothricin whilst, at the same time, providing only a minimal level of PAT expression in the floral tissue itself and especially low in those parts targeted for conditional sterility. With PAT expressed under operable control of the barley plastocyanin promoter region this condition appears to be met since substantially all of the L-phosphinothricin which is sprayed enters via the leaves is intercepted and converted to non-phytotoxic N-acetyl-L-phosphinothricin before it translocated to developing floral tissues. […]

[4] = system: transgenic plants comprising a PAT gene under operable control of the plastocyanin promoter region; experiment: Foliar spray on control transgenic tobacco with PAT gene under plastocyanin promoter, no deacetylase gene; type: in vivo, Nicotiana tabacum var. Samsun; settings: rates in excess of 2 kg/ha; no deacetylase co-expressed

Row | SMILES | seed production after treatment ([1]; foliar spray prior to or during early flower formation, selected lines) | vegetative damage (appearance of treated plants) ([1]; foliar spray prior to or during early flower formation, treatment rates of up to 5 kg/ha) | viable pollen production after treatment ([1]; same treatment conditions as for seed production) | pollen shed and viability after treatment ([2]; foliar spray prior to or during early flower formation, rates usually between 0.25 and 20 kg/ha) | female fertility of treated male infertile plants ([2]; pollinated with pollen from untreated non-transgenic or conditionally female-sterile tobacco) | reproductive tolerance to the herbicide [3] | reproductive tolerance to the herbicide [4]
1 | CP(=O)(O)CC[C@H](N)C(=O)O (racemic) [phosphinothricin] | relatively little or no seed | relatively undamaged | near normal levels of viable pollen | no or relatively little pollen and/or pollen which is not viable | remain female fertile | – | –
2 | CP(=O)(O)CCC(N)C(=O)O (stereo not drawn) [DL PPT, DL phosphinothricin] | – | – | – | – | – | substantially reproductively tolerant | substantially complete reproductive tolerance
